{"source": "patent US20090270395A1", "about": "“EP4 Receptor Agonist, Compositions and Methods Thereof” (priority 2005, published 2009)", "key": {"[1]": {"experiment": "ocular tolerability in cynomolgus monkeys", "type": "in vivo", "conditions": "compared to compounds disclosed in WO 2004/085430 (Example 2)"}, "[2]": {"experiment": "ocular tolerability in rabbits, topical ophthalmic solution", "type": "in vivo, rabbits (New Zealand white rabbits)", "protocol": "Drug concentrations are expressed in terms of the active ingredient (base). The compounds of this invention are dissolved in a suitable ophthalmic solution (e.g., 0.5% Polysorbate-80, 0.02% benzalkonium chloride, 0.1% EDTA, 4.5% mannitol in 5 mM citrate) at 22, 2.2 and 0.22 μM for rabbit study and 111, 33, 11, and 1.1 μM for monkey studies. Drug or vehicle aliquots (25 ul) are administered topically unilaterally or bilaterally. In unilateral applications, the contralateral eyes receive an equal volume of vehicle. Proparacaine (0.5%) is applied to the cornea prior to tonometry to minimize discomfort. Intraocular pressure (IOP) is recorded using a pneumatic tonometer (Alcon Applanation Pneumatonograph) or equivalent."}, "[3]": {"tested_on": "EP2 mRNA in bone tissue", "experiment": "EP2 mRNA in bone tissue of rats after systemic injection (Northern blot)", "type": "in vivo, rat", "conditions": "3-6 mg/Kg injected", "protocol": "(§1) For mRNA localization experiments, 5-week old Sprague-Dawley rats (Charles River) are euthanized by CO2, their tibiae and calvariae are excised, cleaned of soft tissues and frozen immediately in liquid nitrogen. For EP4 regulation experiments, 6-week old rats are given a single injection of either vehicle (7% ethanol in sterile water) or an anabolic dose of PGE2 (Cayman Chemical, Ann Arbor, Mich.), 3-6 mg/kg in the same vehicle) intraperitoneally. Animals are euthanized at several time points post-injection and their tibiae and calvariae, as well as samples from lung and kidney tissues are frozen in liquid nitrogen.\nTotal RNA is extracted from the tibial metaphysis or diaphysis and calvaria using a guanidinium isothiocyanate-phenol-chloroform method after pulverizing frozen bone samples by a tissue homogenizer. See P. Chomczynski et al., Single-step method of RNA isolation by acid guanidium thiocyanate-phenol-chloroform extraction., Analyt Biochem, 162, 156-159 (1987), which is incorporated by reference herein in its entirety. RNA samples ([…]) are separated on 0.9% agarose/formaldehyde gels and transferred onto nylon membranes (Boehringer Mannheim, Germany). […]"}, "[4]": {"tested_on": "ROS 17/2.8 rat osteosarcoma cells", "experiment": "effect on intracellular cAMP in ROS 17/2.8 cells", "type": "cell-based", "protocol": "(§2) RCT-1 and RCT-3 are clonal cell lines immortalized by SV-40 large T antigen from cells released from fetal rat calvair by a combination collagenase/hyaluronidase digestion. RCT-1 cells, derived from cells released during the first 10 minutes of digestion (fraction I), are cultured in RPMI 1640 medium (BRL) with 10% fetal bovine serum and 0.4 mg/ml G418 (BRL). These cells differentiate and express osteoblastic features upon retinoic acid treatment. RCT-3 cells, immortalized from osteoblast-enriched fraction III cells, are cultured in F-12 medium (BRL) with 5% Fetal bovine serum and 0.4 mg/ml G418. TRAB-11 cells are also immortalized by SV40 large T antigen from adult rat tibia and are cultured in RPMI 1640 medium with 10% FBS and 0.4 mg/ml G418. ROS 17/2.8 rat osteosarcoma cells are cultured in F-12 containing 5% FBS. Osteoblast-enriched (fraction III) primary fetal rat calvaria cells are obtained by collagenase/hyaluronidase digestion of calvariae of 19 day-old rat fetuses. See Rodan et al., Growth stimulation of rat calvaria osteoblastic cells by acidic FGF, Endocrinology, 121, 1919-1923 (1987), which is incorporated by reference herein in its entirety. Cells are released during 30-50 minutes digestion (fraction […]) and are cultured in F-12 medium containing 5% FBS. […]"}, "[5]": {"tested_on": "RCT-3 cells", "experiment": "effect on intracellular cAMP in RCT-3 cells", "type": "cell-based, rat", "protocol": "as §2"}, "[6]": {"tested_on": "EP4 expression in bone marrow cells", "experiment": "localization of EP4 mRNA expression in bone tissue by in situ hybridization", "type": "in vivo, rat", "conditions": "rats, single anabolic dose", "protocol": "as §1\nFrozen tibiae are sectioned coronally at […] thickness and sections are mounted on charged slides (Probe On Plus, Fisher Scientific, Springfield, N.J.) and are kept at −70° C. until hybridization. cRNA probes are labeled with ^35S-UTPgS (ICN, Costa Mesa, Calif.) using a Riboprobe II kit (Promega Madison, Wis.). Hybridization is performed overnight at 50° C. […]\nIn situ hybridization is used in order to localize cells expressing EP4 in bone. In control experiment (vehicle-injected) rats, low expression of EP4 is detected in bone marrow cells. […]"}, "[7]": {"tested_on": "EP2 mRNA in RP-1 cells", "experiment": "EP2 mRNA expression (Northern blot) in RP-1 cells", "type": "cell-based, rat", "protocol": "(§3) RP-1 periosteal cells are spontaneously immortalized from primary cultures of periosteal cells from tibae of 4-week old Sprague-Dawley rats and are cultured in DMEM (BRL, Gaithersburg, Md.) with 10% fetal bovine serum (JRH Biosciences, Lenexa, Kans.).\n(§4) Total RNA is extracted from the tibial metaphysis or diaphysis and calvaria using a guanidinium isothiocyanate-phenol-chloroform method after pulverizing frozen bone samples by a tissue homogenizer. See P. Chomczynski et al., Single-step method of RNA isolation by acid guanidium thiocyanate-phenol-chloroform extraction., Analyt Biochem, 162, 156-159 (1987), which is incorporated by reference herein in its entirety. RNA samples ([…]) are separated on 0.9% agarose/formaldehyde gels and transferred onto nylon membranes (Boehringer Mannheim, Germany). Membranes are prehybridized in Hybrisol I (Oncor, Gaithersburg, Md.) and 0.5 mg/ml sonicated salmon sperm DNA (Boehringer) at 42° C. for 3 hours and are hybridized at 42° C. with rat EP2 and mouse EP4 cDNA probes labeled with [^32P]-dCTP (Amersham, Buckinghamshire, UK) by random priming using the rediprime kit (Amersham). After hybridization, membranes are washed 4 times in 2×SSC+0.1% SDS at room temperature for a total of 1 hour and once with 0.2×SSC+0.1% SDS at 55° C. for 1 hour and then exposed to Kodak XAR 2 film at −70° C. using intensifying screens. […]"}, "[8]": {"tested_on": "EP4 mRNA in bone tissue", "experiment": "EP4 mRNA levels in bone tissue of rats after systemic injection (Northern blot)", "type": "in vivo, rat", "conditions": "five-week-old male rats; 3-6 mg/Kg injected", "description": "For mRNA localization experiments, 5-week old Sprague-Dawley rats (Charles River) are euthanized by CO2, their tibiae and calvariae are excised, cleaned of soft tissues and frozen immediately in liquid nitrogen. […] Animals are euthanized at several time points post-injection and their tibiae and calvariae, as well as samples from lung and kidney tissues are frozen in liquid nitrogen.\nas §4, with “(Amersham).” for “(Amersham). After hybridization, membranes are washed 4 times in 2×SSC+0.1% SDS at room temperature for a total of 1 hour and once with 0.2×SSC+0.1% SDS at 55° C. for 1 hour and then exposed to Kodak XAR 2 film at −70° C. using intensifying screens.”"}, "[9]": {"tested_on": "TRAB-11 cells", "experiment": "effect on intracellular cAMP in TRAB-11 cells", "type": "cell-based, rat", "protocol": "as §2"}, "[10]": {"tested_on": "EP4 mRNA in RCT-3 cells", "experiment": "EP4 mRNA expression (Northern blot) in RCT-3 cells", "type": "cell-based, rat", "protocol": "as §2"}, "[11]": {"tested_on": "EP4 mRNA in RP-1 periosteal cells", "experiment": "EP4 mRNA expression (Northern blot) in RP-1 periosteal cells", "type": "cell-based, rat", "conditions": "10^−6 M", "protocol": "as §3, §4"}}}
{"smiles": "CC(C)OC(=O)c1ccc(CCN2C(=O)OCC[C@@H]2/C=C/[C@@H](O)C(F)(F)c2cccc(Br)c2)cc1", "note": "[Example 1, isopropyl 4-(2-{(4R)-4-[(1E,3R)-4-(3-bromophenyl)-4,4-difluoro-3-hydroxybut-1-en-1-yl]-2-oxo-1,3-oxazinan-3-yl}ethyl)benzoate]", "values": [{"measurement": "ocular tolerability", "setting": "[1]", "result": "improved ocular tolerability"}, {"measurement": "ocular tolerability", "setting": "[2]; rabbits, compared to compounds disclosed in WO 2004/085430 (Example 2)", "result": "improved ocular tolerability"}]}
{"smiles": "CCCCC[C@H](O)/C=C/[C@H]1[C@H](O)CC(=O)[C@@H]1C/C=C\\CCCC(=O)O", "note": "[PGE2]", "values": [{"measurement": "induction of EP2 mRNA in bone tissue", "setting": "[3]", "result": "does not induce EP2 mRNA"}, {"measurement": "effect on intracellular cAMP", "setting": "[4]", "result": "no effect"}, {"measurement": "effect on intracellular cAMP", "setting": "[5]", "result": "markedly induced"}, {"measurement": "expression of EP4 in bone marrow cells", "setting": "[6]", "result": "increased the expression of EP4 in bone marrow cells"}, {"measurement": "EP2 mRNA expression before or after treatment", "setting": "[7]", "result": "not expressed"}, {"measurement": "effect on EP4 mRNA levels in the tibial diaphysis", "setting": "[8]", "result": "rapidly increased EP4 mRNA levels"}, {"measurement": "time of peak EP4 mRNA levels in the tibial diaphysis after injection", "setting": "[8]", "result": 2, "unit": "h"}, {"measurement": "effect on intracellular cAMP", "setting": "[9]", "result": "markedly induced"}, {"measurement": "effect on EP4 mRNA levels", "setting": "[10]", "result": "no effect"}, {"measurement": "effect on EP4 mRNA levels", "setting": "[11]", "result": "rapidly increases EP4 mRNA levels"}, {"measurement": "time of peak EP4 mRNA levels after treatment", "setting": "[11]", "result": 2, "unit": "h"}]}
{"smiles": "CC(C)OC(=O)c1ccc(CCN2C(=O)OCC[C@@H]2CC[C@@H](O)C(F)(F)c2cccc(Br)c2)cc1", "note": "[Example 3, isopropyl 4-(2-{(4S)-4-[(3R)-4-(3-bromophenyl)-4,4-difluoro-3-hydroxybutyl]-2-oxo-1,3-oxazinan-3-yl}ethyl)benzoate]", "values": [{"measurement": "drug treatment related ocular adverse effects (eye closure)", "setting": "[2]; New Zealand white rabbits, single dose, topical, unilateral, 2.2 μM (25 μL) ophthalmic solution, vehicle panel-controlled", "result": "very slight drug treatment related ocular adverse effects (eye closure)"}]}
